Data from the supplement of paper PMC10307832.

Experiments:
Experiment in all cases: relative viability (nuclei count vs DMSO), 5 days (fraction); higher = more cells survive
[1] = test system: NCI-H2126
Method in brief: (§1)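 One day after seeding in 1536-well plates, lung cancer cell lines were dosed by pin tool. Dosing was either single-drug or a fixed anchor-drug dose plus five library-drug doses (not always all listed) in √10 steps. After 5 days, nuclei were stained in one fix-and-stain step and counted on 4× images, and relative viability is the nuclei count of treated wells over that of vehicle wells, given as the median of duplicate plates.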

[2] = test system: HARA
Method in brief: as §1

[3] = test system: NCI-H2023
Method in brief: as §1

[4] = test system: NCI-H1915
Method in brief: as §1

[5] = test system: PC-3 [JPC-3]
Method in brief: as §1

[6] = test system: NCI-H441
Method in brief: as §1

[7] = test system: LU99A
Method in brief: as §1

[8] = test system: NCI-H460
Method in brief: as §1

[9] = test system: NCI-H650
Method in brief: as §1

[10] = test system: NCI-H23
Method in brief: as §1

[11] = test system: A-427
Method in brief: as §1

[12] = test system: LOU-NH91
Method in brief: as §1

[13] = test system: NCI-H1755
Method in brief: as §1

[14] = test system: NCI-H322M
Method in brief: as §1

[15] = test system: BEN
Method in brief: as §1

[16] = test system: NCI-H1666
Method in brief: as §1

[17] = test system: SK-LU-1
Method in brief: as §1

[18] = test system: LCLC-97TM1
Method in brief: as §1

[19] = test system: LXF-289
Method in brief: as §1

SMILES: O=c1[nH]c2ccccc2n1C1CCN(CCCC(c2ccc(F)cc2)c2ccc(F)cc2)CC1 [Pimozide] + CC(C)C[C@H](NC(=O)[C@H](Cc1ccccc1)NC(=O)c1cnccn1)B(O)O [Bortezomib] (partner 0.002 µM)
- relative viability ([1]; first compound 0.08 µM): 1.14
- relative viability ([1]; first compound 0.253 µM): 1.1
- relative viability ([1]; first compound 0.8 µM): 1.1
- relative viability ([1]; first compound 2.53 µM): 1.11
- relative viability ([1]; first compound 8 µM): 1.05
- relative viability ([2]; first compound 0.08 µM): 0.857
- relative viability ([2]; first compound 0.253 µM): 1.16
- relative viability ([2]; first compound 0.8 µM): 0.937
- relative viability ([2]; first compound 2.53 µM): 1.17
- relative viability ([2]; first compound 8 µM): 1.06
- relative viability ([3]; first compound 0.08 µM): 0.973
- relative viability ([3]; first compound 0.253 µM): 0.996
- relative viability ([3]; first compound 0.8 µM): 0.74
- relative viability ([3]; first compound 2.53 µM): 0.884
- relative viability ([3]; first compound 8 µM): 0.581
- relative viability ([4]; first compound 0.08 µM): 0.947
- relative viability ([4]; first compound 0.253 µM): 0.908
- relative viability ([4]; first compound 0.8 µM): 0.537
- relative viability ([4]; first compound 2.53 µM): 0.936
- relative viability ([4]; first compound 8 µM): 0.918
- relative viability ([5]; first compound 0.253 µM): 0.803
- relative viability ([5]; first compound 0.8 µM): 0.726
- relative viability ([5]; first compound 2.53 µM): 0.884
- relative viability ([5]; first compound 8 µM): 0.667
- relative viability ([6]; first compound 0.08 µM): 0.692
- relative viability ([6]; first compound 0.253 µM): 0.366
- relative viability ([6]; first compound 0.8 µM): 0.325
- relative viability ([6]; first compound 2.53 µM): 0.451
- relative viability ([6]; first compound 8 µM): 0.336
- relative viability ([7]; first compound 0.08 µM): 1.17
- relative viability ([7]; first compound 0.253 µM): 0.978
- relative viability ([7]; first compound 0.8 µM): 1.09
- relative viability ([7]; first compound 2.53 µM): 1.09
- relative viability ([7]; first compound 8 µM): 0.929
- relative viability ([8]; first compound 0.08 µM): 1.09
- relative viability ([8]; first compound 0.253 µM): 0.933
- relative viability ([8]; first compound 0.8 µM): 0.992
- relative viability ([8]; first compound 2.53 µM): 0.993
- relative viability ([8]; first compound 8 µM): 1.04
- relative viability ([9]; first compound 0.08 µM): 0.797
- relative viability ([9]; first compound 0.253 µM): 0.787
- relative viability ([9]; first compound 0.8 µM): 0.704
- relative viability ([9]; first compound 2.53 µM): 0.718
- relative viability ([9]; first compound 8 µM): 0.747
- relative viability ([10]; first compound 0.08 µM): 0.883
- relative viability ([10]; first compound 0.253 µM): 1.04
- relative viability ([10]; first compound 0.8 µM): 1.02
- relative viability ([10]; first compound 2.53 µM): 0.757
- relative viability ([10]; first compound 8 µM): 0.908
- relative viability ([11]; first compound 0.08 µM): 0.947
- relative viability ([11]; first compound 0.253 µM): 0.965
- relative viability ([11]; first compound 0.8 µM): 0.965
- relative viability ([11]; first compound 2.53 µM): 0.956
- relative viability ([11]; first compound 8 µM): 0.903
- relative viability ([12]; first compound 0.08 µM): 0.498
- relative viability ([12]; first compound 0.253 µM): 0.528
- relative viability ([12]; first compound 0.8 µM): 0.529
- relative viability ([12]; first compound 2.53 µM): 0.504
- relative viability ([12]; first compound 8 µM): 0.479
- relative viability ([13]; first compound 0.08 µM): 0.881
- relative viability ([13]; first compound 0.253 µM): 0.91
- relative viability ([13]; first compound 0.8 µM): 0.844
- relative viability ([13]; first compound 2.53 µM): 0.937
- relative viability ([13]; first compound 8 µM): 0.674
- relative viability ([14]; first compound 0.253 µM): 1.26
- relative viability ([14]; first compound 0.8 µM): 1.18
- relative viability ([14]; first compound 2.53 µM): 1.16
- relative viability ([14]; first compound 8 µM): 1.09
- relative viability ([15]; first compound 0.08 µM): 0.678
- relative viability ([15]; first compound 0.253 µM): 0.81
- relative viability ([15]; first compound 0.8 µM): 0.788
- relative viability ([15]; first compound 2.53 µM): 0.867
- relative viability ([15]; first compound 8 µM): 0.976
- relative viability ([16]; first compound 0.08 µM): 0.823
- relative viability ([16]; first compound 0.253 µM): 0.744
- relative viability ([16]; first compound 0.8 µM): 0.761
- relative viability ([16]; first compound 2.53 µM): 0.7
- relative viability ([16]; first compound 8 µM): 0.626
- relative viability ([17]; first compound 0.08 µM): 1.09
- relative viability ([17]; first compound 0.253 µM): 1.21
- relative viability ([17]; first compound 0.8 µM): 0.741
- relative viability ([17]; first compound 2.53 µM): 0.899
- relative viability ([17]; first compound 8 µM): 1.11
- relative viability ([18]; first compound 0.08 µM): 0.526
- relative viability ([18]; first compound 0.253 µM): 0.637
- relative viability ([18]; first compound 0.8 µM): 0.574
- relative viability ([18]; first compound 2.53 µM): 0.353
- relative viability ([18]; first compound 8 µM): 0.616
- relative viability ([19]; first compound 0.08 µM): 0.989
- relative viability ([19]; first compound 0.253 µM): 0.966
- relative viability ([19]; first compound 0.8 µM): 0.917
- relative viability ([19]; first compound 2.53 µM): 0.94
- relative viability ([19]; first compound 8 µM): 0.865
